Test results published in patent publication US7960376B2, “Benzo-fused heterocycles” (priority 2007, dated 2011).

How the values were obtained:
rat CB2 receptor (rCB2) = biological target: T1, rat CB2 receptor (rCB2) (Rattus norvegicus, UniProt Q9QZN9); assay: cell-based; type: cell-based; details: intracellular cAMP, CHO-K1 cells, NKH-477 prestimulated; + agonist, − inverse agonist
T1 sequence (Q9QZN9 1-360): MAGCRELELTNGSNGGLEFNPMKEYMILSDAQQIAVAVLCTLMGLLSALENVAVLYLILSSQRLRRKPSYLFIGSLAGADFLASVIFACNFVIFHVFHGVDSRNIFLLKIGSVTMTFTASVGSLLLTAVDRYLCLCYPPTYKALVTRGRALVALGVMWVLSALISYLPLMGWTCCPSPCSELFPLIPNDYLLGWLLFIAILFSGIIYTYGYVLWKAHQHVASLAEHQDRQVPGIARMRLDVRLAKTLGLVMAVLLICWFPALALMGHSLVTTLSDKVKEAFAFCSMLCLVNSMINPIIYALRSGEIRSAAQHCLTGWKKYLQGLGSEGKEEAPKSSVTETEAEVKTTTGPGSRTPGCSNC

[1] = biological target: human CB2 receptor (hCB2) (Homo sapiens, UniProt P34972); assay: cell-based; type: cell-based; details: intracellular cAMP, CHO-K1 cells, NKH-477 prestimulated; + agonist, − inverse agonist
human CB2 receptor (hCB2), sequence (P34972 whole entry): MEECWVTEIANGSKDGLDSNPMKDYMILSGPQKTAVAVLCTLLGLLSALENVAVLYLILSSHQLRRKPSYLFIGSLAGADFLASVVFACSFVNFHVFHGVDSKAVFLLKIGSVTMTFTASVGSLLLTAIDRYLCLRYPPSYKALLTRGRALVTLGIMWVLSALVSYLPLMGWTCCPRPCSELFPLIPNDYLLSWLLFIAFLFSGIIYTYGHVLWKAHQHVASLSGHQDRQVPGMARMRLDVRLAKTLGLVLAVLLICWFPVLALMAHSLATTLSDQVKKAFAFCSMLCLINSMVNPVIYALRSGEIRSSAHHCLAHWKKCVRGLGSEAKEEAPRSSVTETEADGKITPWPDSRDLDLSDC

Row | SMILES | rCB2 EC50 range (rat CB2 receptor (rCB2)) | hCB2 EC50 range [1]
1 | COCCCNC(=O)c1ccc2c(c1)N(C(=O)c1ccc(F)cc1)CCS2 [Example 17] | −E | –
2 | CS(=O)(=O)N1CCSc2ccc(C(=O)NC3CCCC3)cc21 [Example 55, N-cyclopentyl-4-(methylsulfonyl)-3,4-dihydro-2H-benzo[b][1,4]thiazine-6-carboxamide] | +D | +E
3 | COc1ccc(C(=O)N2CCSc3ccc(C(=O)NC4CCCC4)cc32)cc1 [Example 11, N-cyclopentyl-4-(4-methoxybenzoyl)-3,4-dihydro-2H-benzo[b] [1,4]thiazine-6-carboxamide] | −D | −E
4 | COCCCNC(=O)c1ccc2c(c1)N(S(C)(=O)=O)CCS2 [Example 56, N-(3-methoxypropyl)-4-(methylsulfonyl)-3,4-dihydro-2H-benzo[b][1,4]thiazine-6-carboxamide] | +E | –
5 | O=C(NNC(=O)c1ccc2c(c1)N(S(=O)(=O)c1ccc(C(F)(F)F)cc1)CCS2)c1ccccc1 [Example 79, N′-benzoyl-4-(4-(trifluoromethyl)phenylsulfonyl)-3,4-dihydro-2H-benzo[b][1,4]thiazine-6-carbohydrazide] | +D | +D
6 | CC(C)C(=O)N1CCSc2ccc(C(=O)NC3CCCC3)cc21 [Example 37, N-cyclopentyl-4-isobutyryl-3,4-dihydro-2H-benzo[b][1,4]thiazine-6-carboxamide] | −E | +E
7 | O=C(c1ccc2c(c1)N(S(=O)(=O)c1ccc(C(F)(F)F)cc1)CCS2)N1CCOCC1 [Example 76, morpholino(4-(4-(trifluoromethyl)phenylsulfonyl)-3,4-dihydro-2H-benzo[b][1,4]thiazin-6-yl)methanone] | +C | +D
8 | CC(C)(C)NC(=O)c1ccc2c(c1)N(S(C)(=O)=O)CCS2 [Example 53, N-tert-butyl-4-(methylsulfonyl)-3,4-dihydro-2H-benzo[b][1,4]thiazine-6-carboxamide] | +D | +E
9 | CC(C)NC(=O)c1ccc2c(c1)N(S(=O)(=O)c1ccccc1)CCS2 [Example 52, N-isopropyl-4-(phenylsulfonyl)-3,4-dihydro-2H-benzo[b][1,4]thiazine-6-carboxamide] | +A | +C
10 | COCCCNC(=O)c1ccc2c(c1)N(C(=O)c1ccc(OC)cc1)CCS2 [Example 20] | – | −E
11 | CCC(=O)N1CCSc2ccc(C(=O)NC(C)(C)C)cc21 [Example 33, N-tert-butyl-4-propionyl-3,4-dihydro-2H-benzo[b][1,4]thiazine-6-carboxamide] | – | +D
12 | O=C(c1ccc2c(c1)N(S(=O)(=O)c1ccccc1)CCS2)N1CCCC1 [Example 66, (4-(phenylsulfonyl)-3,4-dihydro-2H-benzo[b][1,4]thiazin-6-yl)(pyrrolidin-1-yl)methanone] | +D | +D
13 | CC(C)NC(=O)c1ccc2c(c1)N(C(=O)c1ccccc1)CCS2 [Example 26, 4-benzoyl-N-isopropyl-3,4-dihydro-2H-benzo[b][1,4]thiazine-6-carboxamide] | −E | –
14 | O=C(NC1CCCC1)c1ccc2c(c1)N(S(=O)(=O)c1ccccc1)CCS2 [Example 44, N-cyclopentyl-4-(phenylsulfonyl)-3,4-dihydro-2H-benzo[b][1,4]thiazine-6-carboxamide] | +B | +C
15 | CC(C)NC(=O)c1ccc2c(c1)N(C(=O)c1ccc(F)cc1)CCS2 [Example 27] | +D | +E
16 | COc1ccc(C(=O)N2CCSc3ccc(C(=O)NC(C)C)cc32)cc1 [Example 30, N-isopropyl-4-(4-methoxybenzoyl)-3,4-dihydro-2H-benzo[b][1,4]thiazine-6-carboxamide] | −E | −E
17 | O=C(c1ccc2c(c1)N(S(=O)(=O)c1ccc(C(F)(F)F)cc1)CCS2)N1CCCCC1 [Example 75, piperidin-1-yl(4-(4-(trifluoromethyl)phenylsulfonyl)-3,4-dihydro-2H-benzo[b][1,4]thiazin-6-yl)methanone] | −C | –
18 | CC1(C)CCN(S(=O)(=O)c2ccccc2)c2cc(C(=O)N3CCOCC3)ccc2S1 [Example 94, (2,2-dimethyl-5-(phenylsulfonyl)-2,3,4,5-tetrahydro-benzo[b][1,4]thiazepin-7-yl)(morpholino)-methanone] | +D | +E
19 | CN(C)C(=O)c1ccc2c(c1)N(S(=O)(=O)c1ccc(F)cc1)CCS2 [Example 69, 4-(4-fluorophenylsulfonyl)-N,N-dimethyl-3,4-dihydro-2H-benzo[b][1,4]thiazine-6-carboxamide] | +D | +E
20 | COCCCNC(=O)c1ccc2c(c1)N(S(=O)(=O)c1ccccc1)CCS2 [Example 48, N-(3-methoxypropyl)-4-(phenylsulfonyl)-3,4-dihydro-2H-benzo[b][1,4]thiazine-6-carboxamide] | +B | +D
21 | O=S(=O)(c1ccc(C(F)(F)F)cc1)N1CCSc2ccc(-c3nc(-c4cccc(C(F)(F)F)c4)no3)cc21 [Example 80, 3-(3-(trifluoromethyl)phenyl)-5-(4-(4-(trifluoromethyl)phenylsulfonyl)-3,4-dihydro-2H-benzo[b][1,4]thiazin-6-yl)-1,2,4-oxadiazole] | – | +D
22 | COCCCNC(=O)c1ccc2c(c1)N(C(=O)c1ccc(Cl)cc1)CCS2 [Example 19] | −E | −E
23 | CN(C)C(=O)c1ccc2c(c1)N(S(=O)(=O)c1ccc(C(F)(F)F)cc1)CCS2 [Example 72, N,N-dimethyl-4-(4-(trifluoromethyl)phenylsulfonyl)-3,4-dihydro-2H-benzo[b][1,4]thiazine-6-carboxamide] | +C | +C
24 | CC(=O)N1CCSc2ccc(C(=O)NC(C)(C)C)cc21 [Example 32, 4-acetyl-N-tert-butyl-3,4-dihydro-2H-benzo[b][1,4]thiazine-6-carboxamide] | −E | –
25 | COCCCNC(=O)c1ccc2c(c1)N(C(=O)C(C)C)CCS2 [Example 38, 4-isobutyryl-N-(3-methoxypropyl)-3,4-dihydro-2H-benzo[b][1,4]thiazine-6-carboxamide] | −E | –
26 | CC(C)(C)NC(=O)c1ccc2c(c1)N(C(=O)c1ccccc1)CCS2 [Example 9, 4-benzoyl-N-tert-butyl-3,4-dihydro-2H-benzo[b][1,4]thiazine-6-carboxamide] | −D | –
27 | CC1(C)CCN(S(=O)(=O)c2ccc(F)cc2)c2cc(C(=O)N3CCCC3)ccc2S1 [Example 102, (5-(4-fluorophenyl-sulfonyl)-2,2-dimethyl-2,3,4,5-tetrahydro-benzo[b][1,4]thiazepin-7-yl)(pyrrolidin-1-yl)-methanone] | +C | –
28 | O=C(NC1CCCC1)c1ccc2c(c1)N(C(=O)c1ccc(Cl)cc1)CCS2 [Example 15, N-cyclopentyl-4-(4-chlorobenzoyl)-3,4-dihydro-2H-benzo[b] [1,4]thiazine-6-carboxamide] | −E | –
